According to patent US12029751B2, “Therapeutic agent for nervous system disease” (OSAKA UNIVERSITY, priority 2017, dated 2024):

Key:
[1] = test system: tMCAO model C57BL/6J mice; assay: Brain ischemic lesion volume by TTC staining in transient middle cerebral artery occlusion (tMCAO) model; format: in vivo, mouse; settings: 2 days after tMCAO surgery
Excerpt: Eight- to 9-week-old male C57BL/6J mice (about 24 g) were used. A probe for a laser Doppler blood flow meter was placed on the right skull such that blood flow in the middle cerebral artery could be monitored. The right cervical region was cut and opened, and the external carotid artery was ligated. Then, the common carotid artery was cut, and a nylon thread was inserted into the common carotid artery, and the tip was advanced while the blood flow was checked using a blood flow monitor. When the tip reached the bifurcation of the middle cerebral artery and a decrease in blood flow was observed, this state was held for 1 hour at a rectal temperature of 37° C. Then, the nylon thread was removed, and the common carotid artery was ligated. In order to administer methylcobalamin continuously, an osmotic minipump was placed and left in the dorsal subcutaneous space. […]
At 2 days after the surgery, the mouse (Example 4-1) was sacrificed, and the cerebrum was excised. […] Images were obtained by a stereoscopic microscope, the ischemic lesion area in each slice was calculated, and all ischemic lesion areas of the cerebrum slices were summed up to calculate an ischemic lesion volume. The ischemic lesion area in each slice was calculated by the following formula: Area of unaffected hemisphere—area of affected side intact portion.

[2] = test system: rat spinal cord injury model; assay: Immunofluorescent staining of macrophages (M1, M2, M1/M2 ratio) in rat spinal cord injury model; format: in vivo; design: Number of macrophages: unit: /mm2
Method: Six-week-old female Wistar rats were used. The rats were purchased from Charles River Laboratories Japan, Inc. (Yokohama, Japan). Anesthesia was performed as follows. A 1:10 dilution of a mixture of three anesthetic agents in physiological saline was administered by intraperitoneal injection. One dose consisted of 0.2 mg/kg of midazolam, 0.015 mg/kg of medetomidine, and 0.25 mg/kg of butorphanol. The rat was placed in a prone position on an operating table, and a dorsal midline incision was made. The T10 vertebral arch was removed to expose the posterior face of the spinal cord, and the left spinal cord was hemisected using a sharp-pointed surgical scalpel (spitz mess). The skin was sutured using a 4-0 nylon thread and the surgery was completed. A comparison was made among three groups: a methylcobalamin treatment group, an untreated group, and a sham group. Immediately after the surgical operation, an osmotic minipump filled with methylcobalamin (1 mg/kg/day) or physiological saline was placed for the methylcobalamin treatment group and the untreated group, respectively, and left in the left dorsal subcutaneous space. The sham group underwent only resection of the Th10 vertebral arch.
The rat spinal cord injury model of Example 9-1 was used. At 7, 14, and 28 days after the surgery, the rats were anesthetized with an anesthetic agent, and perfusion fixation was performed with 4% PFA. Then, the spinal cord including the injury site was collected and fixed with 20% sucrose for 24 hours, and the fixed spinal cord was freeze-embedded. The embedded tissue was sliced into a 5-μm-thick slice in a nerve short-axis direction and placed on a glass slide. The slice was dried for 1 hour and fixed with 100% methanol for 30 minutes. The fixed slices were blocked, and cells were allowed to react with primary antibodies at 4° C. overnight. The cells were further allowed to react with a secondary antibody at room temperature for 1 hour so that the nuclei were labeled with DAPI.
Using transverse spinal cord sections on the affected side at 2 and 1 mm on the head side and at 1 and 2 mm on the tail side from the injury site, the number of macrophages, the number of M1 (pro-inflammatory type) macrophages, the proportion of M1 macrophages, the number of M2 (anti-inflammatory type) macrophages, and the proportion of M2 macrophage per unit area, as well as the M1/M2 ratio were measured and calculated.
The primary antibodies used were an anti-CD68 antibody, an anti-iNOS antibody, and an anti-Arg1 antibody. The secondary antibodies used were an Alexa 488-labeled goat anti-rabbit IgG antibody and an Alexa 568-labeled goat anti-mouse IgG antibody.

[3] = 7, 14 and 28 days after the surgery, 1 mg/kg/day
[4] = Table 16 (FIG. 16; day not given), 1 mm on the head side
[5] = Table 16 (FIG. 16; day not given), 1 mm on the tail side
[6] = Table 16 (FIG. 16; day not given), 2 mm on the head side
[7] = Table 16 (FIG. 16; day not given), 2 mm on the tail side
[8] = Table 17 (FIG. 17; day not given), 1 mm on the head side
[9] = Table 17 (FIG. 17; day not given), 1 mm on the tail side
[10] = Table 17 (FIG. 17; day not given), 2 mm on the head side
[11] = Table 17 (FIG. 17; day not given), 2 mm on the tail side
[12] = Table 18 (FIG. 18; day not given), 1 mm on the head side
[13] = Table 18 (FIG. 18; day not given), 1 mm on the tail side
[14] = Table 18 (FIG. 18; day not given), 2 mm on the head side
[15] = Table 18 (FIG. 18; day not given), 2 mm on the tail side

C/C1=C2/[N-][C@H]([C@H](CC(N)=O)[C@@]2(C)CCC(=O)NC[C@@H](C)OP(=O)([O-])O[C@H]2[C@@H](O)[C@@H](n3cnc4cc(C)c(C)cc43)O[C@@H]2CO)[C@]2(C)N=C(/C(C)=C3N=C(/C=C4N=C1[C@@H](CCC(N)=O)C\4(C)C)[C@@H](CCC(N)=O)[C@]\3(C)CC(N)=O)[C@@H](CCC(N)=O)[C@]2(C)CC(N)=O.[CH3-].[Co+3] [MeCbl, methylcobalamin]
ischemic lesion volume ([1]; 1 mg/kg/day continuous, osmotic minipump): 28.8
reduction of ischemic lesion volume as compared with the control group ([1]; 1 mg/kg/day): about ½
M1 macrophages as compared with the untreated group [2, 3]: trends for decreased M1 macrophages
M2 macrophages as compared with the untreated group [2, 3]: increased M2 macrophages
number of accumulated macrophages per unit area as compared with the untreated group [2, 3]: trends for a smaller number
M1/M2 ([2]; 7 days after a surgery, 1 mm on the head side): 0.5722
M1/M2 ([2]; 7 days after a surgery, 1 mm on the tail side): 0.602
M1/M2 ([2]; 7 days after a surgery, 2 mm on the head side): 0.8156
M1/M2 ([2]; 7 days after a surgery, 2 mm on the tail side): 0.9337
M1/M2 ([2]; 14 days after a surgery, 1 mm on the head side): 0.993
M1/M2 ([2]; 14 days after a surgery, 1 mm on the tail side): 0.9409
M1/M2 ([2]; 14 days after a surgery, 2 mm on the head side): 0.9106
M1/M2 ([2]; 14 days after a surgery, 2 mm on the tail side): 0.8605
M1/M2 ([2]; 28 days after a surgery, 1 mm on the head side): 2.457
M1/M2 ([2]; 28 days after a surgery, 1 mm on the tail side): 4.3
M1/M2 ([2]; 28 days after a surgery, 2 mm on the head side): 3.355
M1/M2 ([2]; 28 days after a surgery, 2 mm on the tail side): 3.545
M1 macropage ratio [2, 4]: 0.131
Number of M1 macrophages/mm2 [2, 4]: 37.00 /mm2
Number of M2 macrophages/mm2 [2, 4]: 63.85 /mm2
Number of macrophages [2, 4]: 268.62
M1 macropage ratio [2, 5]: 0.129
Number of M1 macrophages/mm2 [2, 5]: 43.07 /mm2
Number of M2 macrophages/mm2 [2, 5]: 76.13 /mm2
Number of macrophages [2, 5]: 348.57
M1 macropage ratio [2, 6]: 0.143
Number of M1 macrophages/mm2 [2, 6]: 20.43 /mm2
Number of M2 macrophages/mm2 [2, 6]: 25.87 /mm2
Number of macrophages [2, 6]: 143.68
M1 macropage ratio [2, 7]: 0.170
Number of M1 macrophages/mm2 [2, 7]: 27.02 /mm2
Number of M2 macrophages/mm2 [2, 7]: 28.76 /mm2
Number of macrophages [2, 7]: 155.09
M1 macrophage ratio [2, 8]: 0.122
M2 macrophage ratio [2, 8]: 0.130
Number of M1 macropages/mm2 [2, 8]: 48.35 /mm2
Number of M2 macrophages/mm2 [2, 8]: 47.90 /mm2
Number of macrophages [2, 8]: 362.17
M1 macrophage ratio [2, 9]: 0.102
M2 macrophage ratio [2, 9]: 0.112
Number of M1 macropages/mm2 [2, 9]: 43.74 /mm2
Number of M2 macrophages/mm2 [2, 9]: 43.12 /mm2
Number of macrophages [2, 9]: 395.70
M1 macrophage ratio [2, 10]: 0.103
M2 macrophage ratio [2, 10]: 0.146
Number of M1 macropages/mm2 [2, 10]: 28.35 /mm2
Number of M2 macrophages/mm2 [2, 10]: 36.37 /mm2
Number of macrophages [2, 10]: 271.15
M1 macrophage ratio [2, 11]: 0.094
M2 macrophage ratio [2, 11]: 0.143
Number of M1 macropages/mm2 [2, 11]: 25.54 /mm2
Number of M2 macrophages/mm2 [2, 11]: 28.29 /mm2
Number of macrophages [2, 11]: 254.39
M1 macrophage ratio [2, 12]: 0.090
M2 macropahge ratio [2, 12]: 0.039
Number of M1 macrophages/mm2 [2, 12]: 29.78 /mm2
Number of M2 macrophages/mm2 [2, 12]: 12.86 /mm 2
Number of macrophages [2, 12]: 320.22
M1 macrophage ratio [2, 13]: 0.132
M2 macropahge ratio [2, 13]: 0.032
Number of M2 macrophages/mm2 [2, 13]: 10.33 /mm 2
Number of macrophages [2, 13]: 342.11
Number of M1 macrophages/mm2 ([2]; Table 18 (FIG. 18; day not given), 1 mm on the tail side (last position column)): 24.68 /mm2
Number of M1 macrophages/mm2 ([2]; Table 18 (FIG. 18; day not given), 1 mm on the tail side (third position column)): 44.79 /mm2
M1 macrophage ratio [2, 14]: 0.089
M2 macropahge ratio [2, 14]: 0.032
Number of M1 macrophages/mm2 [2, 14]: 20.16 /mm2
Number of M2 macrophages/mm2 [2, 14]: 7.65 /mm 2
Number of macrophages [2, 14]: 230.75
M1 macrophage ratio [2, 15]: 0.095
M2 macropahge ratio [2, 15]: 0.032
Number of M2 macrophages/mm2 [2, 15]: 7.42 /mm 2
Number of macrophages [2, 15]: 246.52
